In the NIST ThermoML archive (doi:10.1021/acs.jced.6b00202):

COC(C)(C)C [2-methoxy-2-methylpropane]
Liquid, Brillouin light scattering
Settings	speed of sound [m/s]
343.24 K, 10000 kPa	941
348.1 K, 5500 kPa	874.9
348.12 K, 7000 kPa	890.7
348.16 K, 4000 kPa	858.5
348.16 K, 8500 kPa	907.4
348.17 K, 10000 kPa	915.3
348.22 K, 1000 kPa	829.7
348.22 K, 2500 kPa	844.7
353.05 K, 5500 kPa	858.5
353.1 K, 7000 kPa	868.9
353.11 K, 10000 kPa	903.3
353.2 K, 2500 kPa	825.4
353.22 K, 4000 kPa	841.4
353.23 K, 8500 kPa	889.4
353.25 K, 1000 kPa	800
358.08 K, 7000 kPa	852.1
358.09 K, 5500 kPa	835.6
358.14 K, 8500 kPa	866.9
358.15 K, 1000 kPa	779.2
358.18 K, 10000 kPa	883.2
358.19 K, 2500 kPa	802.1
358.19 K, 4000 kPa	816.3
363.06 K, 1000 kPa	761.1
363.09 K, 2500 kPa	775.4
363.09 K, 5500 kPa	811.7
363.14 K, 7000 kPa	833.6
363.18 K, 8500 kPa	844.2
363.23 K, 4000 kPa	796.3
363.24 K, 10000 kPa	863.5
368.06 K, 5500 kPa	796.6
368.08 K, 10000 kPa	844.9
368.13 K, 7000 kPa	813
368.15 K, 1000 kPa	734.3
368.16 K, 4000 kPa	777
368.21 K, 8500 kPa	831.5
368.25 K, 2500 kPa	754.9
373.07 K, 1000 kPa	713.9
373.07 K, 10000 kPa	828.1
373.11 K, 8500 kPa	811.5
373.12 K, 5500 kPa	770.2
373.16 K, 4000 kPa	753.8
373.17 K, 2500 kPa	733.6
373.24 K, 7000 kPa	791.5
378.06 K, 4000 kPa	732.9
378.07 K, 5500 kPa	751.9
378.07 K, 7000 kPa	770.5
378.13 K, 2500 kPa	711.8
378.13 K, 8500 kPa	791.5
378.22 K, 1000 kPa	691.3
378.25 K, 10000 kPa	804
383.07 K, 1000 kPa	666.2
383.08 K, 4000 kPa	713
383.12 K, 2500 kPa	690.6
383.13 K, 7000 kPa	753.8
383.15 K, 8500 kPa	769.5
383.18 K, 5500 kPa	731.2
383.21 K, 10000 kPa	789.5
388.09 K, 5500 kPa	711.4
388.16 K, 7000 kPa	730.1
388.2 K, 4000 kPa	690

Settings	speed of sound [m/s]
348.24 K, Liquid, Brillouin Light Scattering	797.5
353.11 K, Liquid, Brillouin Light Scattering	781.5
358.22 K, Liquid, Brillouin Light Scattering	748.6
363.16 K, Liquid, Brillouin Light Scattering	727.1
368.17 K, Liquid, Brillouin Light Scattering	707.1
373.05 K, Liquid, Brillouin Light Scattering	698.9
378.05 K, Liquid, Brillouin Light Scattering	668.3
378.1 K, Gas, Brillouin light scattering	171.6
383.08 K, Liquid, Brillouin Light Scattering	646.4
388.11 K, Liquid, Brillouin Light Scattering	627.5
388.2 K, Gas, Brillouin light scattering	170.9
